Drawing on patent US7973033B2, “Multi-cyclic cinnamide derivatives” (Eisai R&D Management Co., Ltd., priority 2006, dated 2011), this text covers IC50 for 21 molecules.

A word on the IC50: it is the concentration needed to halve the response being measured.

In the assay the test system is Aβ 42 production. The experiment in a line: Quantification of Aβ Peptide in Culture of Neurons from Rat Fetus Brain. It counts as cell-based. The conditions noted are these: Neuron, 72 h; rat primary neuronal culture (cerebral cortex, embryonic day 18 Wistar rats); medium collected three days after addition of the compound; Aβ ELISA; read-out: Effect of reducing Aβ 42 production IC50. The protocol: Quantification of Aβ Peptide in Culture of Neurons from Rat Fetus Brain
(1) Rat Primary Neuronal Culture
Primary neuronal cultures were prepared from the cerebral cortex of embryonic day 18 Wistar rats (Charles River Japan, Yokohama, Japan). Specifically, the embryos were aseptically removed from pregnant rats under ether anesthesia. The brain was isolated from the embryo and immersed in an ice-cold L-15 medium (Invitrogen Corp. Cat #11415-064, Carlsbad, Calif., USA, or SIGMA L1518, for example). The cerebral cortex was collected from the isolated brain under a stereoscopic microscope. The cerebral cortex fragments collected were enzymatically treated in an enzyme solution containing 0.25% trypsin (Invitrogen Corp. Cat #15050-065, Carlsbad, Calif., USA) and 0.01% DNase (Sigma D5025, St. Louis, Mo., USA) at 37° C. for 30 minutes to disperse the cells. Here, the enzymatic reaction was stopped by adding inactivated horse serum to the solution. The enzymatically treated solution was centrifuged at 1,500 rpm for five minutes to remove the supernatant. 5 to 10 ml of a medium was added to the resulting cell mass. Neurobasal medium (Invitrogen Corp. Cat #21103-049, Carlsbad, Calif., USA) supplemented with 2% B27 supplement (Invitrogen Corp. Cat #17504-044, Carlsbad, Calif., USA), 25 μM 2-mercaptoethanol (2-ME, WAKO Cat #139-06861, Osaka, Japan), 0.5 mM L-glutamine (Invitrogen Corp. Cat #25030-081, Carlsbad, Calif., USA), and Antibiotics-Antimycotics (Invitrogen Corp. Cat #15240-062, Carlsbad, Calif., USA) was used as the medium (Neurobasal/B27/2-ME). However, the above Neurobasal medium not supplemented with 2-ME (Neurobasal/B27) was used for the assay. The cells were redispersed by mild pipetting of the cell mass to which the medium was added. The cell dispersion was filtered through a 40-μm nylon mesh (Cell Strainer, Cat #35-2340, Becton Dickinson Labware, Franklin Lakes, N.J., USA) to remove the remaining cell mass, and thus a neuronal cell suspension was obtained. The neuronal cell suspension was diluted with the medium and then plated in a volume of 100 μl/well at an initial cell density of 5×10^5 cells/cm^2 in a 96-well polystyrene culture plate pre-coated with poly-L or D-lysine (Falcon Cat #35-3075, Becton Dickinson Labware, Franklin Lakes, N.J., USA coated with poly-L-lysine using the method shown below, or BIOCOAT™ cell environments Poly-D-lysine cell ware 96-well plate, Cat #35-6461, Becton Dickinson Labware, Franklin Lakes, N.J., USA). Poly-L-lysine coating was carried out as follows. 100 μg/ml of a poly-L-lysine (SIGMA P2636, St. Louis, Mo., USA) solution was aseptically prepared with a 0.15 M borate buffer (pH 8.5). 100 μl/well of the solution was added to the 96-well polystyrene culture plate and incubated at room temperature for one or more hours or at 4° C. overnight or longer. The coated 96-well polystyrene culture plate was washed with sterile water four or more times, and then dried or rinsed with, for example, sterile PBS or medium, and used for cell plating. The plated cells were cultured in the culture plate at 37° C. in 5% CO2-95% air for one day. Then, the total amount of the medium was replaced with a fresh Neurobasal™/B27/2-ME medium, and then the cells were cultured for further three days.
The drug was added to the culture plate on Day 4 of culture as follows. The total amount of the medium was removed from the wells, and 180 μl/well of Neurobasal medium not containing 2-ME and containing 2% B-27 (Neurobasal/B27) was added thereto. A solution of the test compound in dimethyl sulfoxide (hereinafter abbreviated as DMSO) was diluted with Neurobasal/B27 at 10-fold of the final concentration. 20 μl/well of the dilution was added to and sufficiently mixed with the medium. The final DMSO concentration was 1% or less. Only DMSO was added to the control group.
The cells were cultured for three days after addition of the compound, and the total amount of the medium was collected. […]

Regarding `COc1cc(/C=C/c2nc3n(n2)CCCC3c2ccc(F)cc2)ccc1-n1cnc(C)c1` (single isomer, unassigned) [Example 52, (−)-8-(4-fluorophenyl)-2-{(E)-2-[3-methoxy-4-(4-methyl-1H-imidazol-1-yl)phenyl]vinyl}-5,6,7,8-tetrahydro[1,2,4]triazolo[1,5-a]pyridine], the half-maximal inhibitory concentration (IC50) amounted to 0.014 µM. The same measure for `COc1cc(/C=C/c2nnc(C(C)(C)c3ccccc3)[nH]2)ccc1-n1cnc(C)c1` [Example 49, 3-{(E)-2-[3-methoxy-4-(4-methyl-1H-imidazol-1-yl)phenyl]vinyl}-5-(1-methyl-1-phenylethyl)-4H-[1,2,4]triazole]: 0.063 µM. For the molecule `COc1cc(/C=C/c2nc(-c3ccc(F)cc3)c3n2CCN(C)C3)ccc1-n1cnc(C)c1` [Example 15, 1-(4-fluorophenyl)-3-{(E)-2-[3-methoxy-4-(4-methyl-1H-imidazol-1-yl)phenyl]vinyl}-7-methyl-5,6,7,8-tetrahydroimidazo[1,5-a]pyrazine], the 50% inhibitory concentration (IC50) was found to be 0.18 µM. The same measure for `COc1cc(/C=C/c2nc3n(n2)CCO[C@H]3c2cc(F)c(F)c(F)c2)ccc1-n1cnc(C)c1` (single isomer, unassigned) [Example 77, (−)-2-{(E)-2-[3-methoxy-4-(4-methyl-1H-imidazol-1-yl)phenyl]vinyl}-8-(3,4,5-trifluorophenyl)-5,6-dihydro-8H-[1,2,4]triazolo[5,1-c][1,4]oxazine]: 0.083 µM; for `COc1cc(/C=C/c2nc(-c3ccc(F)cc3)c[nH]2)ccc1-n1cnc(C)c1` [Example 1, 4-(4-fluorophenyl)-2-{(E)-2-[3-methoxy-4-(4-methyl-1H-imidazol-1-yl)phenyl]vinyl}-1H-imidazole]: 0.045 µM. To `COC(=O)c1nc2n(c1-c1ccc(F)cc1)CCC/C2=C\c1ccc(-n2cnc(C)c2)c(OC)c1` [Example 21, methyl 3-(4-fluorophenyl)-8-{1-[3-methoxy-4-(4-methyl-1H-imidazol-1-yl)phenyl]-(E)-methylidene}-5,6,7,8-tetrahydroimidazo[1,2-a]pyridine-2-carboxylate] belongs 0.041 µM; to `COc1cc(/C=C/c2nc3n(n2)CCC[C@@H]3c2ccc(Cl)cc2)ccc1-n1cnc(C)c1` (single isomer, unassigned) [Example 149, (−)-8-(4-chlorophenyl)-2-{(E)-2-[3-methoxy-4-(4-methyl-1H-imidazol-1-yl)phenyl]vinyl}-5,6,7,8-tetrahydro[1,2,4]triazolo[1,5-a]pyridine], 0.021 µM.

`COc1cc(/C=C/c2nc(C(C)c3ccccc3)n(C)n2)ccc1-n1cnc(C)c1` (stereo not drawn) [Example 45, 3-{(E)-2-[3-methoxy-4-(4-methyl-1H-imidazol-1-yl)phenyl]vinyl}-1-methyl-5-(1-phenylethyl)-1H-[1,2,4]triazole]: the IC50 amounted to 0.085 µM.

As to `COc1cc(/C=C/c2nc3n(n2)CCC[C@]3(O)c2ccc(C)cc2)ccc1-n1cnc(C)c1` (single isomer, unassigned) [Example 155, (−)-2-{(E)-2-[3-methoxy-4-(4-methyl-1H-imidazol-1-yl)phenyl]vinyl}-8-p-tolyl-5,6,7,8-tetrahydro[1,2,4]triazolo[1,5-a]pyridin-8-ol], the IC50 was found to be 0.039 µM. The same measure for `COc1cc(/C=C/c2nc(-c3ccccc3)cn2C)ccc1-n1cnc(C)c1` [Example 5, 2-{(E)-2-[3-methoxy-4-(4-methyl-1H-imidazol-1-yl)phenyl]vinyl}-1-methyl-4-phenyl-1H-imidazole]: 0.018 µM; for `COc1cc(/C=C/c2nc(-c3ccc(F)cc3)c(C(=O)NCCCl)[nH]2)ccc1-n1cnc(C)c1` [Example 9, 5-(4-fluorophenyl)-2-{(E)-2-[3-methoxy-4-(4-methyl-1H-imidazol-1-yl)phenyl]vinyl}-1H-imidazole-4-carboxylic acid (2-chloroethyl)amide]: 0.083 µM. To `COc1cc(/C=C/c2nc3n(n2)CCC[C@@H]3c2ccc(OC(F)(F)F)cc2)ccc1-n1cnc(C)c1` [Example 129, (−)-2-{(E)-2-[3-methoxy-4-(4-methyl-1H-imidazol-1-yl)phenyl]vinyl}-8-(4-trifluoromethoxyphenyl)-5,6,7,8-tetrahydro[1,2,4]triazolo[1,5-a]pyridine] belongs 0.017 µM; to `COc1cc(/C=C/c2nc3n(n2)CCCC3(O)c2ccc(Cl)cc2)ccc1-n1cnc(C)c1` (single isomer, unassigned) [Example 153, (−)-8-(4-chlorophenyl)-2-{(E)-2-[3-methoxy-4-(4-methyl-1H-imidazol-1-yl)phenyl]vinyl}-5,6,7,8-tetrahydro[1,2,4]triazolo[1,5-a]pyridin-8-ol], 0.031 µM.

As to `COc1cc(/C=C/c2nc3n(n2)CCCC3c2cccc3ccccc23)ccc1-n1cnc(C)c1` (single isomer, unassigned) [Example 130, (+)-2-{(E)-2-[3-methoxy-4-(4-methyl-1H-imidazol-1-yl)phenyl]vinyl}-8-naphthalen-1-yl-5,6,7,8-tetrahydro[1,2,4]triazolo[1,5-a]pyridine], the half-maximal inhibitory concentration (IC50) is 0.013 µM. To `COc1cc(/C=C/c2nc(-c3ccc(F)cc3)c(CO)[nH]2)ccc1-n1cnc(C)c1` [Example 7, 5-(4-fluorophenyl)-2-{(E)-2-[3-methoxy-4-(4-methyl-1H-imidazol-1-yl)phenyl]vinyl}-(1H-imidazol-4-yl)methanol] belongs 0.067 µM; to `COc1cc(/C=C/c2nc3n(n2)CCC[C@@H]3c2cc(F)c(F)c(F)c2)c(F)cc1-n1cnc(C)c1` (single isomer, unassigned) [Example 69, (−)-2-{(E)-2-[2-fluoro-5-methoxy-4-(4-methyl-1H-imidazol-1-yl)phenyl]vinyl}-8-(3,4,5-trifluorophenyl)-5,6,7,8-tetrahydro[1,2,4]triazolo[1,5-a]pyridine], 0.074 µM. With `COc1cc(/C=C/c2nnc(Cc3ccc(F)cc3)[nH]2)ccc1-n1cnc(C)c1` [Example 17, 3-(4-fluorobenzyl)-5-{(E)-2-[3-methoxy-4-(4-methyl-1H-imidazol-1-yl)phenyl]vinyl}-4H-[1,2,4]triazole], the IC50 is 0.058 µM.

As to `COc1cc(/C=C(\F)c2nc3n(n2)CCC[C@@H]3c2cc(F)c(F)c(F)c2)ccc1-n1cnc(C)c1` (single isomer, unassigned) [Example 58, (−)-2-{(Z)-1-fluoro-2-[3-methoxy-4-(4-methyl-1H-imidazol-1-yl)phenyl]vinyl}-8-(3,4,5-trifluorophenyl)-5,6,7,8-tetrahydro[1,2,4]triazolo[1,5-a]pyridine], the 50% inhibitory concentration (IC50) was determined as 0.039 µM. To `COc1cc(/C=C/c2nc3n(n2)CCC[C@H]3c2ccccc2)ccc1-n1cnc(C)c1` (single isomer, unassigned) [Example 172, (−)-2-{(E)-2-[3-methoxy-4-(4-methyl-1H-imidazol-1-yl)phenyl]vinyl}-8-phenyl-5,6,7,8-tetrahydro[1,2,4]triazolo[1,5-a]pyridine] belongs 0.011 µM; to `COc1cc(/C=C/c2nc(-c3ccc(F)cc3)c3n2CCNC3=O)ccc1-n1cnc(C)c1` [Example 10, 1-(4-fluorophenyl)-3-{(E)-2-[3-methoxy-4-(4-methyl-1H-imidazol-1-yl)phenyl]vinyl}-6,7-dihydro-5H-imidazo[1,5-a]pyrazin-8-one], 0.13 µM; to `COc1cc(/C=C/c2nnc(CCc3ccc(F)cc3)[nH]2)ccc1-n1cnc(C)c1` [Example 32, 3-[2-(4-fluorophenyl)ethyl]-5-{(E)-2-[3-methoxy-4-(4-methyl-1H-imidazol-1-yl)phenyl]vinyl}-4H-[1,2,4]triazole], 0.062 µM.
